Source: ChEMBL document CHEMBL4414624, “Terpenoids from the Stems of Fissistigma polyanthoides and Their Anti-Inflammatory Activity” (J Nat Prod, 2019)

Columns and labels:
[1] = (§1) Inhibition of LPS-induced NF-kappaB/AP-1 signalling cascade in human THP1-Blue-CD14 cells incubated for 24 hrs by quanti-blue SEAP assay; assay type: cell-based
Homo sapiens = organism: Homo sapiens; experiment: as §1; assay type: cell-based
[2] = Cytotoxicity against LPS-stimulated human THP1-Blue-CD14 cells assessed as reduction in cell viability after 24 hrs by CellTiter-Blue based fluorescence analysis
[3] = Cytotoxicity against human THP1-Blue-CD14 cells assessed as reduction in cell viability after 24 hrs by CellTiter-Blue based fluorescence analysis

SMILES	IC50 [1] [µM]	inhibition (Homo sapiens)	IC50 [2] [µM]	IC50 [3] [µM]
C[C@@H]1CC[C@H](C(C)(C)O[C@@H]2O[C@H](CO)[C@@H](O)[C@H](O)[C@H]2OC(=O)/C=C/c2ccccc2)CC2=C1CC[C@H]2C	28.4	Dose-dependent effect	35.2	47.9
CC(C)[C@@H]1CC[C@@H](C)[C@@]23CC[C@](C)(O[C@@H]4O[C@H](CO)[C@@H](O)[C@H](O)[C@H]4OC(=O)/C=C/c4ccccc4)[C@@H]2[C@@H]13	13.7	Dose-dependent effect	21.6	29.2

More lines, main results first:

IC50 [1] [µM]	SMILES	inhibition (Homo sapiens)	IC50 [2] [µM]	IC50 [3] [µM]
20.8	CC(C)C1=CC[C@]2(C)[C@@H](O)CC[C@@](C)(O[C@@H]3O[C@H](CO)[C@@H](O)[C@H](O)[C@H]3OC(=O)/C=C/c3ccccc3)[C@H]2C1	Dose-dependent effect	29.5	39.1
30.7	CC(C)[C@H]1CC/C2=C/C(=O)CC[C@](C)(O[C@@H]3O[C@H](CO)[C@@H](O)[C@H](O)[C@H]3OC(=O)/C=C/c3ccccc3)C[C@@H]21	Dose-dependent effect	46.4	133
49	C=C1CC[C@@H](C(C)C)/C=C/[C@@](C)(O[C@@H]2O[C@H](CO)[C@@H](O)[C@H](O)[C@H]2OC(=O)/C=C/c2ccccc2)CCC1=O	Dose-dependent effect	154	
